The structures appear in SMILES notation. Where a name gives a salt, the structure may show the parent alone.

Sequence of ROCK2 (O75116 whole entry, species assumed): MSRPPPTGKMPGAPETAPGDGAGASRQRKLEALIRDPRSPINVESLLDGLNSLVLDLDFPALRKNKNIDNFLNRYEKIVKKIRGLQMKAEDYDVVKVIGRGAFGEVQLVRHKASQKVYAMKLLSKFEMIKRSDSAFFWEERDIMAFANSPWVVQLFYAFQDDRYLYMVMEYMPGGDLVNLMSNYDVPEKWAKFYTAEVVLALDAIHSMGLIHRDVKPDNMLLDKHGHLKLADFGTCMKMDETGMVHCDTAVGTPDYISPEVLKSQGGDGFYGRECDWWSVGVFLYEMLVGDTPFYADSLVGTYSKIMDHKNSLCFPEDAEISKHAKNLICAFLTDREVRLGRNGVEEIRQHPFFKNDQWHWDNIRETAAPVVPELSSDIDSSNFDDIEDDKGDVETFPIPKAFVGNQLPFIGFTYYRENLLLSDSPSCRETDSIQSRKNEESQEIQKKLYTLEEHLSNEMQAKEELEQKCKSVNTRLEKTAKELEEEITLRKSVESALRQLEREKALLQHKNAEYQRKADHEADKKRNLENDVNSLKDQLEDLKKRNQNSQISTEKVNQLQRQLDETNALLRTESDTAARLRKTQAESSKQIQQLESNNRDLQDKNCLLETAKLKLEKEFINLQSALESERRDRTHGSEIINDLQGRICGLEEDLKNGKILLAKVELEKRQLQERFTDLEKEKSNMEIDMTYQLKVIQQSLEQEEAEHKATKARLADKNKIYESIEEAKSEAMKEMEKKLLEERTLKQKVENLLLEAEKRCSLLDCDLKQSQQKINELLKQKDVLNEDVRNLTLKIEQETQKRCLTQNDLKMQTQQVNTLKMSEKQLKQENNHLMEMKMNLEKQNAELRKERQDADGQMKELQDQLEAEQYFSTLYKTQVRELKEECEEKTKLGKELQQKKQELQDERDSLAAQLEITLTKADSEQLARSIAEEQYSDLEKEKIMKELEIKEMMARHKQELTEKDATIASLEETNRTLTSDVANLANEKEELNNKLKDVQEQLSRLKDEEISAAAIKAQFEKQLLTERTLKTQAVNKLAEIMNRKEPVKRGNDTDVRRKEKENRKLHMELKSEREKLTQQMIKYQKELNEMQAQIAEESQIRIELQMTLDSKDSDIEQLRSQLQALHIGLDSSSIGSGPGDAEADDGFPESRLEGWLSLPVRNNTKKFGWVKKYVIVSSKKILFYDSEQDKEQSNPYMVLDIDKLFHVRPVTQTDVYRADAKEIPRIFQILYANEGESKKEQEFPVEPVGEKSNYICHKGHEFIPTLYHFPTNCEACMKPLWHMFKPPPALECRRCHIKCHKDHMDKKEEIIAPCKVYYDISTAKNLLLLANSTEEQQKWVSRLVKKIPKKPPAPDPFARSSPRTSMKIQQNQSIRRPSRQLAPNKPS

One test addresses ROCK2 (Homo sapiens, UniProt O75116). The experiment in a line: ROCK2 kinase inhibition assay (LABCHIP 3000 Reader, FITC peptide substrate).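 Also: rho kinase reaction read by separating phosphorylated from unphosphorylated peptide on chip, with inhibition of kinase activity computed per concentration across a dose-response series.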
Settings: not given
For `[H][C@]1(Oc2ncccc2C(N)=O)C[C@@]2(C[C@H](NC(=O)c3nnn4c(Cl)c(OCc5ccccc5)ccc34)C2)C1` (stereo partly drawn) [Example 373, 6-(benzyloxy)-N-((aR)-6-((3-carbamoylpyridin-2-yl)oxy)spiro[3.3]heptan-2-yl)-7-chloro-[1,2,3]triazolo[1,5-a]pyridine-3-carboxamide], the IC50 (commonly the concentration that inhibits the measured activity by half) fell in the range of 250 to 2500 nM.
On the same count and under the same terms, the same measure for `Cc1nc(-c2cc(C#N)cc(C(=O)N[C@H]3CC4(C3)C[C@H](Oc3ncccc3C(N)=O)C4)c2)cs1` (stereo partly drawn) [Example 203, 2-(((aR)-6-(3-cyano-5-(2-methylthiazol-4-yl)benzamido)spiro[3.3]heptan-2-yl)oxy)nicotinamide, trifluoroacetate]: 5 to 50 nM.
Same read-out and setting: then `Cc1c(C(=O)NC2CC3(C2)CC(Oc2ncccc2C(N)=O)C3)cnn1-c1ccc(C#N)c(F)c1` (centres unmarked) [Example 391], with 50 to 250 nM.
On the same count and under the same terms, then `N#Cc1cccc(-c2ccc(C(=O)N[C@H]3CC4(C3)C[C@H](Oc3ncccc3C(N)=O)C4)cc2)c1` (stereo partly drawn) [Example 160, 2-(((aR)-6-(3′-cyano-[1,1′-biphenyl]-4-ylcarboxamido)spiro[3.3]heptan-2-yl)oxy) nicotinamide], with 50 to 250 nM.
`Cc1ncsc1CCOc1ccc2c(C(=O)N[C@H]3CC4(C3)C[C@H](Oc3ncccc3C(N)=O)C4)cnn2c1` (stereo partly drawn) [Example 128, N-((aR)-6-((3-carbamoylpyridin-2-yl)oxy)spiro[3.3]heptan-2-yl)-6-(2-(4-methylthiazol-5-yl)ethoxy) pyrazolo[1,5-a]pyridine-3-carboxamide, trifluoroacetate] yielded an IC50 of 5 to 50 nM.
On the same count and under the same terms, then `CC(C)(O)Cn1nc(C(=O)N[C@H]2CC3(C2)C[C@H](Oc2ncccc2C(N)=O)C3)c2cc(Br)ccc21` (stereo partly drawn) [Example 93, 5-bromo-N-((aR)-6-((3-carbamoyl-pyridin-2-yl)oxy)spiro[3.3]heptan-2-yl)-1-(2-hydroxy-2-methylpropyl)-1H-indazole-3-carboxamide, trifluoroacetate], with 5 to 50 nM; and `NC(=O)c1cccnc1O[C@H]1CC2(C[C@H](NC(=O)c3cnc4cc(N5CCS(=O)(=O)CC5)ccn34)C2)C1` (stereo partly drawn) [Example 362, N-((aR)-6-((3-carbamoylpyridin-2-yl)oxy)spiro[3.3]heptan-2-yl)-7-(1,1-dioxidothiomorpholino)imidazo[1,2-a]pyridine-3-carboxamide], with 50 to 250 nM; and `[H][C@]1(Oc2ncccc2C(N)=O)C[C@@]2(C[C@H](NC(=O)c3nn(C(C)(C)C#N)c4cc(-c5cnn(C)c5)ccc34)C2)C1` (stereo partly drawn) [Example 406, N-((aR)-6-((3-carbamoylpyridin-2-yl)oxy)spiro[3.3]heptan-2-yl)-1-(2-cyanopropan-2-yl)-6-(1-methyl-1H-pyrazol-4-yl)-1H-indazole-3-carboxamide, TFA], with less than 5 nM.
As to `NC(=O)c1cccnc1O[C@H]1CC2(C[C@H](NC(=O)c3cc(C(F)(F)F)cc4[nH]c(=O)[nH]c34)C2)C1` (stereo partly drawn) [Example 104, N-((aR)-6-((3-carbamoylpyridin-2-yl)oxy)spiro[3.3]heptan-2-yl)-2-oxo-6-(trifluoromethyl)-2,3-dihydro-1H-benzo[d]imidazole-4-carboxamide, trifluoroacetate], the IC50 is less than 5 nM.
With `NC(=O)c1cccnc1O[C@H]1CC2(C[C@H](NC(=O)c3cn4ccccc4n3)C2)C1` (stereo partly drawn) [Example 75, N-((aR)-6-((3-carbamoylpyridin-2-yl)oxy)spiro[3.3]-heptan-2-yl)imidazo[1,2-a] pyridine-2-carboxamide, trifluoroacetate], the IC50 was 250 to 2500 nM.
`[H][C@]1(Oc2ncccc2C(N)=O)C[C@@]2(C[C@H](NC(=O)c3nnn4cc(OCC(C)(C)O)ccc34)C2)C1` (stereo partly drawn) [Example 375, N-((aR)-6-((3-carbamoylpyridin-2-yl)oxy)spiro[3.3]heptan-2-yl)-6-(2-hydroxy-2-methylpropoxy)-[1,2,3]triazolo[1,5-a]pyridine-3-carboxamide] had an IC50 of 50 to 250 nM.
On to `CC(C)(O)COc1ccc2c(C(=O)NC3CC4(C3)CC(Oc3cc(CCCCN)ccc3C(N)=O)C4)cnn2c1` (centres unmarked) [Example 305, N-(6-(5-(4-aminobutyl)-2-carbamoylphenoxy)spiro[3.3]heptan-2-yl)-6-(2-hydroxy-2-methylpropoxy)pyrazolo[1,5-a]pyridine-3-carboxamide], for which the IC50 was less than 5 nM.
Still for that read-out and setting: then `COc1cccc(-c2ccc(C(N)=O)c(OC3CC4(CC(NC(=O)c5cnn6cc(OCC(C)(C)O)ccc56)C4)C3)c2)c1` (centres unmarked) [Example 239, N-(6-((4-carbamoyl-3′-methoxy-[1,1′-biphenyl]-3-yl)oxy)spiro[3.3]heptan-2-yl)-6-(2-hydroxy-2-methylpropoxy)pyrazolo[1,5-a]pyridine-3-carboxamide], with 5 to 50 nM.
`NC(=O)c1ccccc1O[C@H]1CC2(C[C@H](NC(=O)c3cnn4cc(N5CCC(F)(F)C5)ccc34)C2)C1` (stereo partly drawn) [Example 23, N-[(aR)-6-(2-carbamoylphenoxy)spiro[3.3]heptan-2-yl]-6-(3,3-difluoropyrrolidin-1-yl)pyrazolo[1,5-a]pyridine-3-carboxamide] had an IC50 of less than 5 nM.
`CC(C)(O)COc1ccc2c(C(=O)NC3CC4(C3)CC(Oc3cc(-c5cccc(N)n5)ccc3C(N)=O)C4)cnn2c1` (centres unmarked) [Example 236, N-(6-(5-(6-aminopyridin-2-yl)-2-carbamoylphenoxy)spiro[3.3]heptan-2-yl)-6-(2-hydroxy-2-methylpropoxy)pyrazolo[1,5-a]pyridine-3-carboxamide] gave an IC50 of 5 to 50 nM.
`Cc1nc(-c2ccccc2)oc1C(=O)N[C@H]1CC2(C1)C[C@H](Oc1ncccc1C(N)=O)C2` (stereo partly drawn) [Example 164, N-((aR)-6-((3-carbamoylpyridin-2-yl)oxy)spiro[3.3]heptan-2-yl)-4-methyl-2-phenyloxazole-5-carboxamide] gave an IC50 of 250 to 2500 nM.
Same read-out and setting: the same measure for `NC(=O)c1cccnc1OC1CC2(CC(NC(=O)c3cnn(-c4cccc(Cl)c4F)c3)C2)C1` (centres unmarked) [Example 393]: 5 to 50 nM.
On the same count and under the same terms, then `[H][C@]1(Oc2ncccc2C(N)=O)C[C@@]2(C[C@H](NC(=O)c3nn(C(C)(C)C#N)c4cc(-c5cnn(C(F)F)c5)ccc34)C2)C1` (stereo partly drawn) [Example 407, N-((aR)-6-((3-carbamoylpyridin-2-yl)oxy)spiro[3.3]heptan-2-yl)-1-(2-cyanopropan-2-yl)-6-(1-(difluoromethyl)-1H-pyrazol-4-yl)-1H-indazole-3-carboxamide, TFA], with less than 5 nM; and `NC(=O)c1cccnc1O[C@H]1CC2(C[C@H](NC(=O)c3nn(CC(F)F)c4cc(F)ccc34)C2)C1` (stereo partly drawn) [Example 175, N-((aR)-6-((3-carbamoylpyridin-2-yl)oxy)spiro[3.3]heptan-2-yl)-1-(2,2-difluoroethyl)-6-fluoro-1H-indazole-3-carboxamide, trifluoroacetate], with less than 5 nM; and `COc1ccc(NC(=O)N[C@H]2CC3(C2)C[C@H](Oc2ccccc2C(N)=O)C3)cc1` (stereo partly drawn) [Example 40, 2-[((aR)-6-{[(4-methoxyphenyl)carbamoyl]amino}spiro[3.3]heptan-2-yl)oxy]benzamide], with 50 to 250 nM.
Regarding `NC(=O)c1cccnc1O[C@H]1CC2(C[C@H](NC(=O)c3cnc4cc(C(F)(F)F)ccn34)C2)C1` (stereo partly drawn) [Example 334, N-((aR)-6-((3-carbamoylpyridin-2-yl)oxy)spiro[3.3]heptan-2-yl)-7-(trifluoromethyl)imidazo[1,2-a]pyridine-3-carboxamide], the IC50 lay in the range of 50 to 250 nM.
`NC(=O)c1cccnc1O[C@H]1CC2(C[C@H](NC(=O)c3csc(-c4ccccn4)n3)C2)C1` (stereo partly drawn) [Example 130, N-((aR)-6-((3-carbamoylpyridin-2-yl)oxy)spiro [3.3]heptan-2-yl)-2-(pyridin-2-yl)thiazole-4-carboxamide, bis-trifluoroacetate] displayed an IC50 of 250 to 2500 nM.
The same measure, in the same setting: then `CC(C)(O)COc1ccc2c(C(=O)NC3CC4(C3)CC(Oc3cc(-c5cccc(C(=O)N6CCOCC6)c5)ccc3C(N)=O)C4)cnn2c1` (centres unmarked) [Example 294, N-(6-((4-carbamoyl-3′-(morpholine-4-carbonyl)-[1,1′-biphenyl]-3-yl)oxy)spiro[3.3]heptan-2-yl)-6-(2-hydroxy-2-methylpropoxy)pyrazolo[1,5-a]pyridine-3-carboxamide], with 5 to 50 nM.
Still for that read-out and setting: then `NC(=O)c1ccccc1O[C@H]1CC2(C[C@H](NC(=O)c3cnn4cc(OCCN5CCCC5)ccc34)C2)C1` (stereo partly drawn) [Example 21, N-[(aR)-6-(2-carbamoylphenoxy)spiro[3.3]heptan-2-yl]-6-[2-(pyrrolidin-1-yl)ethoxy]pyrazolo[1,5-a]pyridine-3-carboxamide], with 5 to 50 nM.

The same test, now with this note: read-out: ROCK2 Activity (ROCK2 IC50); 5 μM ATP, 1.5 μM peptide substrate, pH 7.5.
As for `Cn1cncc1-c1cc(C(=O)NC2CC3(C2)CC(Oc2ncccc2C(N)=O)C3)cc(C(F)(F)F)c1` [Example 449, 2-(((aR)-6-(3-(1-methyl-1H-imidazol-5-yl)-5-(trifluoromethyl)benzamido)spiro[3.3]heptan-2-yl)oxy)nicotinamide], the IC50 lay within 5 to 50 nM.
The same measure, in the same setting: then `NC(=O)c1cccnc1OC1CC2(CC(NC(=O)c3nc(N)nc4ccccc34)C2)C1` [Example 461, 2-Amino-N-((aR)-6-((3-carbamoylpyridin-2-yl)oxy)spiro[3.3]heptan-2-yl)quinazoline-4-carboxamide, 2 TFA], with 50 to 250 nM.
Same read-out and setting: then `CC(C)(C)c1cccc(C(=O)NC2CC3(C2)CC(Oc2ncccc2C(N)=O)C3)c1` [Example 423, 2-(((aR)-6-(3-(tert-butyl)benzamido)spiro[3.3]heptan-2-yl)oxy)nicotinamide], with 5 to 50 nM.
For the molecule `NC(=O)c1cccnc1OC1CC2(CC(NC(=O)c3nn(CCC(F)(F)F)c4cc(F)ccc34)C2)C1` [Example 105, N-((aR)-6-((3-carbamoylpyridin-2-yl)oxy)spiro[3.3]heptan-2-yl)-6-fluoro-1-(3,3,3-trifluoropropyl)-1H-indazole-3-carboxamide, trifluoroacetate], the IC50 is less than 5 nM.
Same read-out and setting: then `Cn1cc(-c2cc(C(=O)NC3CC4(C3)CC(Oc3ncccc3C(N)=O)C4)cc(C(F)(F)F)c2)c(C(F)(F)F)n1` [Example 447, 2-(((aR)-6-(3-(1-methyl-3-(trifluoromethyl)-1H-pyrazol-4-yl)-5-(trifluoromethyl)benzamido)spiro[3.3]heptan-2-yl)oxy)nicotinamide], with 5 to 50 nM.

For the origin of these results see patent publication US10829501B2 (BRISTOL-MYERS SQUIBB COMPANY, priority 2016, dated 2020).
